# Source: paper PMC7708037, “Targeting OGG1 arrests cancer cell proliferation by inducing replication stress” (Nucleic Acids Research, 2020)
# Key:
# [1] = tested on: A3 shNT cells transcriptome; test: RNA-sequencing and Gene Set Enrichment Analysis; type: cell-based, human; settings: 10 μM, 24 h vs DMSO
# Procedure: To extract bulk RNA from cells, the pellets were resuspended in 500 μl of TRI Reagent. After 5 min, 100 μl of chloroform was added and the tubes were shaken by hand for one minute. After 15 min incubation, the samples were centrifuged at 12 000 × g for 15 min at 4°C. 300 μl of the aqueous phase were then mixed thoroughly with 300 μl of Isopropanol, 30 μl of 3M Sodium Acetate and 1 μl of Pellet Paint (Merck 69049) and incubated over night at −20°C. The following day, the samples were centrifuged at 20 000 × g g for 30 min and the pellets washed twice with 600 μl of 70% ethanol. After drying, the pellets were resuspended in 15 μl of Elution Buffer and the concentration of RNA was measured using the Qubit RNA High Sensitivity Assay (Thermo Fischer Q32852) according to the manufacturer's instructions.
# After diluting the samples, 2 ng of RNA were used as input for the Smart-seq2 RNA-sequencing protocol ([41]) and 50 bp single ends were sequenced on an Illumina HiSeq 3000 sequencer. Reads were mapped to the ENSEMBL human transcriptome GRCh37 using Tophat 2.1.1 to generate the read count matrix.
# Differential expression analysis was performed with DESeq2 (v. 1.26.0) ([42]). […] For Gene Set Enrichment Analysis only genes with a mean expression >5 normalized counts as determined by DESeq2 were taken into account. […]
# Figure 6. […] Only genes with a mean normalized count >5 were analyzed. […]
# [2] = tested on: MCM4 gene promoter in A3 cells; test: Oxidative DNA damage within MCM4 gene promoter (qPCR); type: cell-based, human; settings: 10 μM, 72 h
# Procedure: We adapted the procedure described by O’Callaghan et al. ([46]) to measure oxidative DNA damage at the MCM4 gene promoter region. This is a qPCR method based on differences in PCR kinetics between DNA template digested by FPG and undigested DNA. We have modified the original protocol to incorporate another purified human OGG1 to quantify the accumulation of base lesions specific for OGG1, 8-oxoguanine. Conditions used for incubation were 200 ng of gDNA together with 2.4 μM of hOGG1 during 4 h. The quantitative real-time amplification of genomic DNA was performed as described by O’Callaghan et al. ([46]). Specific primers were used at a final concentration of 100 nM (promoterMCM4-F: 5′-GCTGTGATTGGTGAGGCCC -3′; promoterMCM4-R: 5′-CAAACCGCGAGACCCAGAG-3′) . Amplification cycling conditions were 10 min at 95°C, followed by 40 cycles of 95°C for 15 s and 60°C for 1 min. ΔCT method was run in an ABI quant studio 1 and all samples were loaded and analyzed in triplicate.
# Figure 6. TH5487 treatment induces a downregulation of DNA replication genes (A) Gene Set Enrichment analysis plot of the DNA Replication Gene Ontology Gene Set. […] Only genes with a mean normalized count >5 were analyzed. […] Statistical significance was determined using a two-sided unpaired t-test (ns, non-significant, *P < 0.05, **P < 0.01, ***P < 0.001 and ****P < 0.0001).
structure (smiles),measurement,setting,value
O=C(Nc1ccc(I)cc1)N1CCC(n2c(=O)[nH]c3c(Br)cccc32)CC1 [TH5487],'DNA replication' gene signature (GSEA),[1],one of the most downregulated gene signatures
same,Oxidative DNA damage at SP1 binding motif of MCM4 promoter,[2],significant accumulation of oxidative DNA damage
